The target in this assay is T1, human GluN1/GluN2B NMDA receptors (Homo sapiens, UniProt Q13224).
T1 construct: expressed in transfected cells
In words: Cell-based calcium flux (FLIPR) assay on cloned human NR1/NR2B ion channels expressed in mammalian cells (standard and HTS buffer variants).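 Also: stable Tet-On inducible cell line, Ca2+ influx triggered by glutamate at about EC40 plus 10 µM glycine, fluorescent dye read-out over 5 min, normalized to control wells.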

[1] abbreviates: standard assay buffer (0.5 mM MgCl2 dye loading; 137 mM NaCl, 4 mM KCl assay buffer), human GluN1/GluN2B cells, read-out: NR2B IC50 (μM) standard assay.
[2] abbreviates: standard assay buffer (0.5 mM MgCl2 in dye loading buffer; 137 mM NaCl, 4 mM KCl in assay buffer), human GluN1/GluN2B, read-out: NR2B IC50 (μM) standard assay.
Where [3] appears, read: HTS assay buffer (1.5 mM MgCl2 in dye loading buffer; 150 mM NaCl, 3 mM KCl in assay buffer), human GluN1/GluN2B, read-out: NR2B IC50 (μM) HTS assay.

Structures are written as SMILES. Like-named read-outs stand apart in the source and are kept apart here. Some results are limits rather than exact numbers.

T1 sequence (Q13224 27-1484, other chains not shown): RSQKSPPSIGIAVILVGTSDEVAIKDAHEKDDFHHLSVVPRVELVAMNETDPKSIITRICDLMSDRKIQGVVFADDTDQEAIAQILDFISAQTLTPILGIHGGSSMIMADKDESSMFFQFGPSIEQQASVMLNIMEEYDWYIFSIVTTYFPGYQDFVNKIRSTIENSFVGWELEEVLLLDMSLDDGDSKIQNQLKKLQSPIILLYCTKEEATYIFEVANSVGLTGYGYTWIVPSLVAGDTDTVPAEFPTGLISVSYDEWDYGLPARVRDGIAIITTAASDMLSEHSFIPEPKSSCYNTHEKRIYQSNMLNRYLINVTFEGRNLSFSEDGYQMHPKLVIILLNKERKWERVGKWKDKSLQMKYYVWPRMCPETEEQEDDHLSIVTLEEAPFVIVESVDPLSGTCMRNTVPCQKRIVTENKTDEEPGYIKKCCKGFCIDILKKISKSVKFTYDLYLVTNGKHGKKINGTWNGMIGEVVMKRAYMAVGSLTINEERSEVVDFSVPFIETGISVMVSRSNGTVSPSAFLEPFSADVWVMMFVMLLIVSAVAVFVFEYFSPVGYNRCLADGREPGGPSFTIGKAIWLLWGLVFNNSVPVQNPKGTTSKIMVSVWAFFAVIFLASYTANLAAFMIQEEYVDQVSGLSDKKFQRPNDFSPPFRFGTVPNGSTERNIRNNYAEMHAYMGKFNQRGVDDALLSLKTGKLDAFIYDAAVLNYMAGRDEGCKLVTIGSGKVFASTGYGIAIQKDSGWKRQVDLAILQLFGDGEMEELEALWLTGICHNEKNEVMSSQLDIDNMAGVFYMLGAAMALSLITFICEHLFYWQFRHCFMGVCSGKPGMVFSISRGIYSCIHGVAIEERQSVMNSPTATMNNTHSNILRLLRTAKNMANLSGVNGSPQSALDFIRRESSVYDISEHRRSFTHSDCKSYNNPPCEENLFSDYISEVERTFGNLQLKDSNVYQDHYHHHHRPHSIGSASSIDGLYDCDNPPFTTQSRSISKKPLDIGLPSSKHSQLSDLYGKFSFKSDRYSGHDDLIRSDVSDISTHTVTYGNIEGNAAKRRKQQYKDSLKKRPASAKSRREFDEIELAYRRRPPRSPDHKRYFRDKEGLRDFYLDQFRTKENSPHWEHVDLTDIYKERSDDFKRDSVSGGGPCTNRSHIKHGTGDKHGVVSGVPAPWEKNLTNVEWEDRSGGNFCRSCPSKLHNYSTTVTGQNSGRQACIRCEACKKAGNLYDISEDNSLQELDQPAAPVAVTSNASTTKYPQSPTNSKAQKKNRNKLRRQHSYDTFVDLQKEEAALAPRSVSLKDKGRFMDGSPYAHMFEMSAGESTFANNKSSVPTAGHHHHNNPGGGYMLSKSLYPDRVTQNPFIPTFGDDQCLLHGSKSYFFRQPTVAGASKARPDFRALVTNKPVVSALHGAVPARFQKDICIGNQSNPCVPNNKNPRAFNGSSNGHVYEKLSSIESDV

One may read the IC50 as the midpoint of a concentration-inhibition curve. As for `Cn1c(=O)n(Cc2ccncn2)c2cc(-c3cccc(C(F)(F)F)c3)cnc21` [Example 246, 3-Methyl-1-(pyrimidin-4-ylmethyl)-6-[3-(trifluoromethyl)phenyl]imidazo[4,5-b]pyridin-2-one], the IC50 under setting [1] turned out to be 0.349 µM.

For `Cn1c(=O)n(Cc2cncc(F)c2)c2cc(-c3ccc(Cl)c(Cl)c3)cnc21` [Example 351, 6-(3,4-Dichlorophenyl)-1-[(5-fluoro-3-pyridyl)methyl]-3-methyl-imidazo[4,5-b]pyridin-2-one], the half-inhibitory concentration (IC50) under setting [2] came out at 0.251 µM.

In the case of `Cn1c(=O)n(Cc2csnn2)c2cc(-c3cccc(C(F)(F)F)c3)cnc21` [Example 548, 3-Methyl-1-(thiadiazol-4-ylmethyl)-6-[3-(trifluoromethyl)phenyl]imidazo[4,5-b]pyridin-2-one], under setting [2], the IC50 worked out at 0.185 µM. Regarding `Cn1cc(Cn2c(=O)n(C)c3ncc(-c4ccc(C(F)(F)F)s4)cc32)cn1` [Example 565, 3-Methyl-1-[(1-methylpyrazol-4-yl)methyl]-6-[5-(trifluoromethyl)-2-thienyl]imidazo[4,5-b]pyridin-2-one], under setting [2], the IC50 worked out at 0.374 µM. For the compound `O=c1[nH]c2ncc(-c3cccc(C(F)(F)F)c3)cc2n1Cc1ccncc1` [Example 229, 1-(4-Pyridylmethyl)-6-[3-(trifluoromethyl)phenyl]-3H-imidazo[4,5-b]pyridin-2-one], the 50% inhibitory concentration (IC50) under setting [1] came out at 0.194 µM.

Consider `CCC(=O)Cn1c(=O)n(C)c2ncc(-c3ccc(F)c(C)c3)cc21` [Example 389, 6-(4-Fluoro-3-methyl-phenyl)-3-methyl-1-(2-oxobutyl)imidazo[4,5-b]pyridin-2-one], for which the IC50 under setting [2] came out at 0.017 µM. Consider `O=c1[nH]c2ncc(-c3ccc(F)cc3)cc2n1Cc1ccccn1` [Example 286, 6-(4-Fluorophenyl)-1-(2-pyridylmethyl)-3H-imidazo[4,5-b]pyridin-2-one], for which the IC50 under setting [1] is 1.98 µM.

Turning to `COc1ccc(-c2cnc3[nH]c(=O)n(CC(=O)NC4CC4)c3c2)cc1` [Example 38, N-Cyclopropyl-2-[6-(4-methoxyphenyl)-2-oxo-3H-imidazo[4,5-b]pyridin-1-yl]acetamide], the IC50 (HTS assay buffer (1.5 mM MgCl2 dye loading; 150 mM NaCl, 3 mM KCl assay buffer), human GluN1/GluN2B cells, read-out: NR2B IC50 (μM) HTS assay) is 1.01 µM.

Consider `CCOc1ccccc1-c1cnc2[nH]c(=O)n(Cc3cc(C)on3)c2c1` [Example 517, 6-(2-Ethoxyphenyl)-1-[(5-methylisoxazol-3-yl)methyl]-3H-imidazo[4,5-b]pyridin-2-one], for which the IC50 under setting [2] worked out at 0.709 µM.

For the compound `Cc1c(F)ccc(-c2cnc3c(c2)n(Cc2cncc(Cl)c2)c(=O)n3C)c1F` [Example 368, 1-[(5-Chloro-3-pyridyl)methyl]-6-(2,4-difluoro-3-methyl-phenyl)-3-methyl-imidazo[4,5-b]pyridin-2-one], under setting [2], the IC50 was found to be 0.356 µM. With `COc1ccc(Cn2c(=O)[nH]c3ncc(-c4cccc(C(F)(F)F)c4)cc32)nn1` [Example 252, 1-[(6-Methoxypyridazin-3-yl)methyl]-6-[3-(trifluoromethyl)phenyl]-3H-imidazo[4,5-b]pyridin-2-one], the IC50 under setting [1] was over 10 µM. Still for that read-out and setting: with `CCc1ccc(-c2cnc3c(c2)n(CC(=O)N2CC(F)C2)c(=O)n3C)s1` [Example 88, 6-(5-Ethyl-2-thienyl)-1-[2-(3-fluoroazetidin-1-yl)-2-oxo-ethyl]-3-methyl-imidazo[4,5-b]pyridin-2-one] the figure was 0.02 µM.

Turning to `Cn1c(=O)n(Cc2cccnc2)c2cc(-c3cccc(C(F)(F)F)c3)cnc21` [Example 362, 3-Methyl-1-(3-pyridylmethyl)-6-[3-(trifluoromethyl)phenyl]imidazo[4,5-b]pyridin-2-one], under setting [2], the IC50 is 0.105 µM. As to `O=c1[nH]c2ncc(-c3cccc(C(F)(F)F)c3)cc2n1Cc1cccc(Cl)c1` [Example 21, 1-[(3-Chlorophenyl)methyl]-6-[3-(trifluoromethyl)phenyl]-3H-imidazo[4,5-b]pyridin-2-one], the half-inhibitory concentration (IC50) under setting [1] is 1.34 µM. Regarding `O=c1[nH]c2ncc(-c3cccc(C(F)(F)F)c3)cc2n1CCN1CCC(F)CC1` [Example 162, 1-[2-(4-Fluoro-1-piperidyl)ethyl]-6-[3-(trifluoromethyl)phenyl]-3H-imidazo[4,5-b]pyridin-2-one], the IC50 under setting [1] was 1.1 µM. As to `Cn1c(=O)n(Cc2cccnn2)c2cc(-c3cc(F)c(F)c(C(F)(F)F)c3)cnc21` [Example 387, 6-[3,4-Difluoro-5-(trifluoromethyl)phenyl]-3-methyl-1-(pyridazin-3-ylmethyl)imidazo[4,5-b]pyridin-2-one], the IC50 under setting [2] turned out to be 0.022 µM. Take `Cn1ccc(Cn2c(=O)[nH]c3ncc(-c4ccc(F)c(F)c4)cc32)n1` [Example 131, 6-(3,4-Difluorophenyl)-1-[(1-methylpyrazol-3-yl)methyl]-3H-imidazo[4,5-b]pyridin-2-one]: the half-maximal inhibitory concentration (IC50) under setting [1] came out at 3.56 µM. For the compound `O=c1[nH]c2ncc(-c3cccc(C(F)(F)F)c3)cc2n1Cc1nn[nH]n1` [Example 236, 1-(2H-Tetrazol-5-ylmethyl)-6-[3-(trifluoromethyl)phenyl]-3H-imidazo[4,5-b]pyridin-2-one], under setting [1], the IC50 was over 5 µM. For the compound `Cn1c(=O)n(Cc2cccnc2)c2cc(-c3ccc(F)c(F)c3F)cnc21` [Example 361, 3-Methyl-1-(3-pyridylmethyl)-6-(2,3,4-trifluorophenyl)imidazo[4,5-b]pyridin-2-one], the IC50 under setting [2] turned out to be 1.54 µM. For `Cc1c(-c2cnc3[nH]c(=O)n(CCN4CC(F)C4)c3c2)cccc1C(F)(F)F` [Example 181, 1-[2-(3-Fluoroazetidin-1-yl)ethyl]-6-[2-methyl-3-(trifluoromethyl)phenyl]-3H-imidazo[4,5-b]pyridin-2-one], under setting [1], the IC50 came out at 9.35 µM. Regarding `Cc1cc(Cn2c(=O)[nH]c3ncc(-c4cc(F)cc(F)c4)cc32)no1` [Example 523, 6-(3,5-Difluorophenyl)-1-[(5-methylisoxazol-3-yl)methyl]-3H-imidazo[4,5-b]pyridin-2-one], the IC50 under setting [2] was found to be 0.133 µM. Turning to `O=c1[nH]c2ncc(-c3cccc(C(F)(F)F)c3)cc2n1Cc1ccc(C(F)(F)F)cc1` [Example 219, 6-[3-(Trifluoromethyl)phenyl]-1-[[4-(trifluoromethyl)phenyl]methyl]-3H-imidazo[4,5-b]pyridin-2-one], the IC50 under setting [1] is over 10 µM. For `CN(C)C(=O)Cn1c(=O)n(C)c2ncc(-c3ccc(CO)s3)cc21` [Example 91, 2-[6-[5-(Hydroxymethyl)-2-thienyl]-3-methyl-2-oxo-imidazo[4,5-b]pyridin-1-yl]-N,N-dimethyl-acetamide], the IC50 under setting [1] is 1.7 µM. For the compound `Cn1c(=O)n(Cc2cncc(Cl)c2)c2cc(-c3cccc(F)c3F)cnc21` [Example 375, 1-[(5-Chloro-3-pyridyl)methyl]-6-(2,3-difluorophenyl)-3-methyl-imidazo[4,5-b]pyridin-2-one], the IC50 under setting [2] amounted to 1.51 µM.

Take `Cn1c(=O)n(CC(=O)N2CC(F)C2)c2cc(-c3ccc(F)c(C(F)F)c3)cnc21` [Example 585, 6-[3-(Difluoromethyl)-4-fluoro-phenyl]-1-[2-(3-fluoroazetidin-1-yl)-2-oxo-ethyl]-3-methyl-imidazo[4,5-b]pyridin-2-one]: under setting [2], the IC50 amounted to 0.018 µM. Take `CCOc1ccc(F)cc1-c1cnc2[nH]c(=O)n(Cc3ccccc3C#N)c2c1` [Example 489, 2-[[6-(2-Ethoxy-5-fluoro-phenyl)-2-oxo-3H-imidazo[4,5-b]pyridin-1-yl]methyl]benzonitrile]: the IC50 under setting [3] amounted to 1.28 µM. On to `O=C(Cn1c(=O)[nH]c2ncc(-c3cccc(C(F)(F)F)c3)cc21)NC1CCC1` [Example 190, N-Cyclobutyl-2-[2-oxo-6-[3-(trifluoromethyl)phenyl]-3H-imidazo[4,5-b]pyridin-1-yl]acetamide], for which the IC50 under setting [1] amounted to 0.07 µM. Regarding `Cc1cc(-c2cnc3[nH]c(=O)n(CC(=O)N4CCC4)c3c2)sc1Cl` [Example 324, 1-[2-(Azetidin-1-yl)-2-oxo-ethyl]-6-(5-chloro-4-methyl-2-thienyl)-3H-imidazo[4,5-b]pyridin-2-one], under setting [2], the concentration for half-maximal inhibition (IC50) came out at 0.015 µM. As for `Cn1c(=O)n(CC(=O)N2CCC2)c2cc(-c3ccc(CO)s3)cnc21` [Example 89, 1-[2-(Azetidin-1-yl)-2-oxo-ethyl]-6-[5-(hydroxymethyl)-2-thienyl]-3-methyl-imidazo[4,5-b]pyridin-2-one], under setting [1], the IC50 came out at 0.549 µM. On to `O=C(Cn1c(=O)[nH]c2ncc(-c3ccc(OCCF)c(C(F)(F)F)c3)cc21)N1CCC1` [Example 538, 1-[2-(Azetidin-1-yl)-2-oxo-ethyl]-6-[4-(2-fluoroethoxy)-3-(trifluoromethyl)phenyl]-3H-imidazo[4,5-b]pyridin-2-one], for which the IC50 under setting [2] is 0.24 µM. As to `COc1ccc(-c2cnc3[nH]c(=O)n(CC4CC4)c3c2)cc1F` [Example 469, 1-(Cyclopropylmethyl)-6-(3-fluoro-4-methoxy-phenyl)-3H-imidazo[4,5-b]pyridin-2-one], the IC50 under setting [3] came to 0.944 µM.

Turning to `Cn1c(=O)n(Cc2cncc(F)c2)c2cc(-c3cc(F)c(F)c(F)c3)cnc21` [Example 344, 1-[(5-Fluoro-3-pyridyl)methyl]-3-methyl-6-(3,4,5-trifluorophenyl)imidazo[4,5-b]pyridin-2-one], the IC50 under setting [2] was determined as 0.518 µM. On the same count and under the same terms, with `COc1ccc(-c2cnc3[nH]c(=O)n(CC(=O)c4cccs4)c3c2)cc1` [Example 461, 6-(4-Methoxyphenyl)-1-[2-oxo-2-(2-thienyl)ethyl]-3H-imidazo[4,5-b]pyridin-2-one] the figure was 0.054 µM. On to `Cn1c(=O)n(CC(=O)N2CCC2)c2cc(-c3ccc(C(F)F)s3)cnc21` [Example 93, 1-[2-(Azetidin-1-yl)-2-oxo-ethyl]-6-[5-(difluoromethyl)-2-thienyl]-3-methyl-imidazo[4,5-b]pyridin-2-one], for which, under setting [1], the IC50 came to 0.006 µM. The same measure, in the same setting: the result for `COc1ccc(-c2cnc3[nH]c(=O)n(CC(=O)N4CCOCC4)c3c2)cc1` [Example 1, 6-(4-Methoxyphenyl)-1-(2-morpholino-2-oxo-ethyl)-3H-imidazo[4,5-b]pyridin-2-one] reads 2.74 µM.

Values taken from patent US11759455B2, “Substituted 1H-imidazo[4,5-b]pyridin-2(3H)-ones and their use as GLUN2B receptor modulators” (JANSSEN PHARMACEUTICA NV, priority 2016, dated 2023).
